How the values were obtained:
SERT = SERT (Homo sapiens, UniProt P31645); experiment: Uptake into HEK293 cells overexpressing SERT (uptake ratio and concentration-dependent uptake); conditions: for Clint ± SEM: SERT, intrinsic clearance, quotient of vmax and Km;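 for Uptake Ratio by Transporter SERT: ratio of uptake in SERT cells over empty-vector control cells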;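 for all read-outs here: incubation at 37 °C, intracellular compound quantified by HPLC-MS/MS after cell lysis, uptake normalized to total protein measured by bicinchoninic acid assay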
NET = NET (Homo sapiens, UniProt P23975); experiment: Uptake into HEK293 cells overexpressing NET (uptake ratio and concentration-dependent uptake); conditions: intrinsic clearance, quotient of vmax and Km
DAT = DAT (Homo sapiens, UniProt Q01959); experiment: Uptake into HEK293 cells overexpressing DAT (uptake ratio and concentration-dependent uptake); conditions: intrinsic clearance, quotient of vmax and Km
[1] = substrate: N=C(N)NCc1cccc(I)c1; experiment: cells, lysate or membranes; conditions: concentration-dependent net uptake, Michaelis–Menten, pH 7.4
[2] = substrate: CNCCc1c[nH]c2ccc(O)cc12; experiment: cells, lysate or membranes; conditions: concentration-dependent net uptake, Michaelis–Menten, pH 7.4
[3] = substrate: NCCc1c[nH]c2ccc(O)cc12; experiment: cells, lysate or membranes; conditions: concentration-dependent net uptake, Michaelis–Menten, pH 7.4

SERT, sequence (P31645 whole entry): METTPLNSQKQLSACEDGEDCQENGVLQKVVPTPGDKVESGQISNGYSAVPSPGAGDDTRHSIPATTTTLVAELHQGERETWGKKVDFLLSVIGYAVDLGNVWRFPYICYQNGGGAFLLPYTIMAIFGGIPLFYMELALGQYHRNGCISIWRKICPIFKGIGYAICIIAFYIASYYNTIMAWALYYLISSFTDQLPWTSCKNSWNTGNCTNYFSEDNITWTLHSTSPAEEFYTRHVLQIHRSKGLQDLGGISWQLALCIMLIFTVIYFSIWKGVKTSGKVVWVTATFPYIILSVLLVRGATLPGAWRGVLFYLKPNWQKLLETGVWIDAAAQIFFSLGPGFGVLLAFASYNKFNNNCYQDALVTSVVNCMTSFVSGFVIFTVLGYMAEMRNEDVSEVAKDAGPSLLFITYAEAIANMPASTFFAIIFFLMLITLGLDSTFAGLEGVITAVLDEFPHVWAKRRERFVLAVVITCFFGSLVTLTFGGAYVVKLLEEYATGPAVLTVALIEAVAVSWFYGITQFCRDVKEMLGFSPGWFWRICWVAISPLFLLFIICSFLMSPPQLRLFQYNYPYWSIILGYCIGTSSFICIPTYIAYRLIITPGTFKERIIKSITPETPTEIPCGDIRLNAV
DAT, sequence (Q01959 whole entry): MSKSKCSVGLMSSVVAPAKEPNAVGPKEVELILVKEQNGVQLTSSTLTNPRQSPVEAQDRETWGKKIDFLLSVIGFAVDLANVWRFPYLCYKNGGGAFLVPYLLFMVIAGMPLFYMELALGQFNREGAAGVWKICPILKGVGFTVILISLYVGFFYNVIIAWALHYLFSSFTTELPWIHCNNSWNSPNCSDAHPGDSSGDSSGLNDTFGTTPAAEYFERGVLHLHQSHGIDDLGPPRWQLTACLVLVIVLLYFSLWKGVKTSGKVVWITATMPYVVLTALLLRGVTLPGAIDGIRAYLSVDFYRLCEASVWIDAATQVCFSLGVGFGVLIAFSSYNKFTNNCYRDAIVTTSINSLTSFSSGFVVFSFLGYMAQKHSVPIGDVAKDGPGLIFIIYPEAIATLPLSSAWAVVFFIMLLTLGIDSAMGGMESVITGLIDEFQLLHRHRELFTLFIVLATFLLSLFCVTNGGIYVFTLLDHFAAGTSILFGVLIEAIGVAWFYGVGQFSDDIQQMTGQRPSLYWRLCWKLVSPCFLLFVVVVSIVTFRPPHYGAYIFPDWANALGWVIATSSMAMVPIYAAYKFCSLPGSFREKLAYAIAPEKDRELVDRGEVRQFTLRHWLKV
NET, sequence (P23975 whole entry): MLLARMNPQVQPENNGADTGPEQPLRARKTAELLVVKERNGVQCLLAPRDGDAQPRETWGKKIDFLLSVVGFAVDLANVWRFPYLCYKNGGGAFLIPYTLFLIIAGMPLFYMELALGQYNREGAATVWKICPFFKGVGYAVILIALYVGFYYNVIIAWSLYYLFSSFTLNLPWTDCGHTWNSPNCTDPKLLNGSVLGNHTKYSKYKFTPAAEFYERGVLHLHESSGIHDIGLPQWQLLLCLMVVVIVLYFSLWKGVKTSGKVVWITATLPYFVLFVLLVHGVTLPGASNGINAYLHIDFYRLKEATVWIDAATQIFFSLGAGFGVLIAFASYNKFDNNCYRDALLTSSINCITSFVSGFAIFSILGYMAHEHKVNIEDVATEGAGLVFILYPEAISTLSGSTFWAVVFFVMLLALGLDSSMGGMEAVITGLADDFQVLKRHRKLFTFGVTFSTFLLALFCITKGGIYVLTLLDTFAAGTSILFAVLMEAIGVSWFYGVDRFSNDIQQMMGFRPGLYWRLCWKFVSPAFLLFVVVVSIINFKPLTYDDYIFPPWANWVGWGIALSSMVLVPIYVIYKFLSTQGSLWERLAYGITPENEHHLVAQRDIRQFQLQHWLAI

Q: Which “Uptake Ratio by Transporter SERT” value (SERT) does the source give for COc1cc(CCN)ccc1O [3-Methoxy-p-tyramine] here?
A: Its value is 4.45.

Q: For NCc1ccc(O)cc1 [4-Hydroxybenzylamine], which “Uptake Ratio by Transporter SERT” value (SERT) is on record?
A: The value was 1.55.

Q: Which “Uptake Ratio by Transporter SERT” value (SERT) does the source give for COc1ccc(CCN)cc1O [4-Methoxy-m-tyramine] here?
A: The value was 3.86.

Q: COc1ccc2[nH]cc(CCN)c2c1 [5-Methoxy-Tryptamine] was tested. Which “Uptake Ratio by Transporter SERT” value (SERT) did it give?
A: Its value is 3.46.

Q: NC[C@H](O)c1ccc(O)c(O)c1 [(-)-Norepinephrine] was tested. Which “Clint ± SEM” value (NET) did it give?
A: The value was 47.8 mL × g Protein^−1 × min^−1.

Q: For CN[C@@H]1CCc2[nH]c3ccc(C(N)=O)cc3c2C1 [(R)-Frovatriptan, reference compound], which “Clint ± SEM” value (SERT) is on record?
A: The value was 38.48 mL × g Protein^−1 × min^−1.

Q: How did the “Uptake Ratio by Transporter SERT” value (SERT) turn out when NCC(O)c1ccccc1 (stereo not shown) [Bisnorephedrine] was run?
A: Its value is 1.45.

Q: For CNCCc1ccc(O)c(O)c1 [Deoxyepinephrine], which “Uptake Ratio by Transporter SERT” value (SERT) is on record?
A: Its value is 13.89.

Q: For NCCc1ccc(O)c(O)c1 [Dopamine], which “Clint ± SEM” value (DAT) is on record?
A: Its value is 78.9 mL × g Protein^−1 × min^−1.

Q: CNCC(O)c1ccccc1 (stereo not shown) [Halostachine] was tested. Which “Uptake Ratio by Transporter SERT” value (SERT) did it give?
A: Its value is 2.26.

Q: CN(C)CCc1ccc(O)cc1 [Hordenine] was tested. Which “Uptake Ratio by Transporter SERT” value (SERT) did it give?
A: Its value is 2.02.

Q: C[n+]1ccc(-c2ccccc2)cc1 [MPP+, reference compound] was tested. Which “Uptake Ratio by Transporter SERT” value (SERT) did it give?
A: The value was 50.42.

Q: CNCC(O)c1ccc(O)c(OC)c1 (stereo not shown) [Metanephrine] was tested. Which “Uptake Ratio by Transporter SERT” value (SERT) did it give?
A: Its value is 1.97.

Q: Which “Uptake Ratio by Transporter SERT” value (SERT) does the source give for CNCCc1ccc(O)cc1 [N-Methyl p-tyramine] here?
A: The value was 2.46.

Q: How did the “Uptake Ratio by Transporter SERT” value (SERT) turn out when CNCCc1ccccc1 [N-Methylphenylethylamine] was run?
A: Its value is 2.29.

Q: COc1cc(C(O)CN)ccc1O (stereo not shown) [Normetanephrine] was tested. Which “Uptake Ratio by Transporter SERT” value (SERT) did it give?
A: Its value is 1.91.

Q: With CNCC(O)c1ccc(O)cc1 (stereo not shown) [Synephrine] as the molecule, how does the “Uptake Ratio by Transporter SERT” value (SERT) read?
A: Its value is 1.53.

Q: NC1CC1c1ccccc1 (stereo not shown) [Tranylcypromin, reference compound] was tested. Which “Uptake Ratio by Transporter SERT” value (SERT) did it give?
A: Its value is 2.37.

Q: How did the “Uptake Ratio by Transporter SERT” value (SERT) turn out when NCCc1c[nH]c2ccccc12 [Tryptamine] was run?
A: Its value is 4.88.

Q: What about the “Clint ± SEM” value (SERT) of the same molecule?
A: Its value is 22.0 mL × g Protein^−1 × min^−1.

Q: With NCCc1cccc(O)c1 [m-Tyramine] as the molecule, how does the “Uptake Ratio by Transporter SERT” value (SERT) read?
A: The value was 3.08.

B1: OCT3 (Homo sapiens) (protein)
chain: MPSFDEALQRVGEFGRFQRRVFLLLCLTGVTFAFLFVGVVFLGTQPDHYWCRGPSAAALAERCGWSPEEEWNRTAPASRGPEPPERRGRCQRYLLEAANDSASATSALSCADPLAAFPNRSAPLVPCRGGWRYAQAHSTIVSEFDLVCVNAWMLDLTQAILNLGFLTGAFTLGYAADRYGRIVIYLLSCLGVGVTGVVVAFAPNFPVFVIFRFLQGVFGKGTWMTCYVIVTEIVGSKQRRIVGIVIQMFFTLGIIILPGIAYFIPNWQGIQLAITLPSFLFLLYYWVVPESPRWLITRKKGDKALQILRRIAKCNGKYLSSNYSEITVTDEEVSNPSFLDLVRTPQMRKCTLILMFAWFTSAVVYQGLVMRLGIIGGNLYIDFFISGVVELPGALLILLTIERLGRRLPFAASNIVAGVACLVTAFLPEGIAWLRTTVATLGRLGITMAFEIVYLVNSELYPTTLRNFGVSLCSGLCDFGGIIAPFLLFRLAAVWLELPLIIFGILASICGGLVMLLPETKGIALPETVDDVEKLGSPHSCKCGRNKKTPVSRSHL
Q: For B1, which Km ([1]; other: OCT3) is on record?
A: Its Km is 10.5 ± 1.9 µM.

Q: And the Vmax ([1]; other: OCT3)?
A: Its Vmax is 0.00169 µmol/min/mg.

Q: And the Vmax/Km ([1]; other: OCT3)?
A: The Vmax/Km was 161 µL/min/mg.

Q: What about the Km ([2]; other: OCT3) of the same molecule?
A: Its Km is 18.78 ± 12.42 µM.

Q: And the Vmax ([2]; other: OCT3)?
A: Its Vmax is 181.7 pmol × mg Protein^−1 × min^−1.

B2: OCT2 (Homo sapiens) (protein)
chain: MPTTVDDVLEHGGEFHFFQKQMFFLLALLSATFAPIYVGIVFLGFTPDHRCRSPGVAELSLRCGWSPAEELNYTVPGPGPAGEASPRQCRRYEVDWNQSTFDCVDPLASLDTNRSRLPLGPCRDGWVYETPGSSIVTEFNLVCANSWMLDLFQSSVNVGFFIGSMSIGYIADRFGRKLCLLTTVLINAAAGVLMAISPTYTWMLIFRLIQGLVSKAGWLIGYILITEFVGRRYRRTVGIFYQVAYTVGLLVLAGVAYALPHWRWLQFTVSLPNFFFLLYYWCIPESPRWLISQNKNAEAMRIIKHIAKKNGKSLPASLQRLRLEEETGKKLNPSFLDLVRTPQIRKHTMILMYNWFTSSVLYQGLIMHMGLAGDNIYLDFFYSALVEFPAAFMIILTIDRIGRRYPWAASNMVAGAACLASVFIPGDLQWLKIIISCLGRMGITMAYEIVCLVNAELYPTFIRNLGVHICSSMCDIGGIITPFLVYRLTNIWLELPLMVFGVLGLVAGGLVLLLPETKGKALPETIEEAENMQRPRKNKEKMIYLQVQKLDIPLN
Q: With B2 as the molecule, how does the Km ([3]; other: OCT2) read?
A: Its Km is 685.6 µM.

Q: What about the Vmax ([3]; other: OCT2) of the same molecule?
A: Its Vmax is 31565 pmol × mg Protein^−1 × min^−1.

Q: What about the Km ([1]; other: OCT2) of the same molecule?
A: Its Km is 13.3 ± 2.4 µM.

Q: And the Vmax ([1]; other: OCT2)?
A: The Vmax was 0.00204 µmol/min/mg.

Q: What about the Vmax/Km ([1]; other: OCT2) of the same molecule?
A: Its Vmax/Km is 152 µL/min/mg.

Q: And the Km ([2]; other: OCT2)?
A: Its Km is 253.9 ± 54.98 µM.

Q: And the Vmax ([2]; other: OCT2)?
A: The Vmax was 11918 pmol × mg Protein^−1 × min^−1.

B3: OCT1 (Homo sapiens) (protein)
chain: MPTVDDILEQVGESGWFQKQAFLILCLLSAAFAPICVGIVFLGFTPDHHCQSPGVAELSQRCGWSPAEELNYTVPGLGPAGEAFLGQCRRYEVDWNQSALSCVDPLASLATNRSHLPLGPCQDGWVYDTPGSSIVTEFNLVCADSWKLDLFQSCLNAGFLFGSLGVGYFADRFGRKLCLLGTVLVNAVSGVLMAFSPNYMSMLLFRLLQGLVSKGNWMAGYTLITEFVGSGSRRTVAIMYQMAFTVGLVALTGLAYALPHWRWLQLAVSLPTFLFLLYYWCVPESPRWLLSQKRNTEAIKIMDHIAQKNGKLPPADLKMLSLEEDVTEKLSPSFADLFRTPRLRKRTFILMYLWFTDSVLYQGLILHMGATSGNLYLDFLYSALVEIPGAFIALITIDRVGRIYPMAMSNLLAGAACLVMIFISPDLHWLNIIIMCVGRMGITIAIQMICLVNAELYPTFVRNLGVMVCSSLCDIGGIITPFIVFRLREVWQALPLILFAVLGLLAAGVTLLLPETKGVALPETMKDAENLGRKAKPKENTIYLKVQTSEPSGT
Q: For B3, which Km ([3]; other: OCT1) is on record?
A: The Km was 235.6 µM.

Q: What about the Vmax ([3]; other: OCT1) of the same molecule?
A: The Vmax was 5161 pmol × mg Protein^−1 × min^−1.

Q: What about the Km ([1]; other: OCT1) of the same molecule?
A: Its Km is 16.6 ± 3.7 µM.

Q: And the Vmax ([1]; other: OCT1)?
A: The Vmax was 0.0023 µmol/min/mg.

Q: And the Vmax/Km ([1]; other: OCT1)?
A: Its Vmax/Km is 138 µL/min/mg.

Q: What about the Km ([2]; other: OCT1) of the same molecule?
A: Its Km is 27.78 ± 9.19 µM.

Q: And the Vmax ([2]; other: OCT1)?
A: Its Vmax is 2237 pmol × mg Protein^−1 × min^−1.

Source: paper PMC8657982, “Overlap and Specificity in the Substrate Spectra of Human Monoamine Transporters and Organic Cation Transporters 1, 2, and 3” (International Journal of Molecular Sciences, 2021)
